The assay addresses T1, glucocorticoid receptor (GR) (Homo sapiens, UniProt P04150).
T1 sequence (P04150 1-777): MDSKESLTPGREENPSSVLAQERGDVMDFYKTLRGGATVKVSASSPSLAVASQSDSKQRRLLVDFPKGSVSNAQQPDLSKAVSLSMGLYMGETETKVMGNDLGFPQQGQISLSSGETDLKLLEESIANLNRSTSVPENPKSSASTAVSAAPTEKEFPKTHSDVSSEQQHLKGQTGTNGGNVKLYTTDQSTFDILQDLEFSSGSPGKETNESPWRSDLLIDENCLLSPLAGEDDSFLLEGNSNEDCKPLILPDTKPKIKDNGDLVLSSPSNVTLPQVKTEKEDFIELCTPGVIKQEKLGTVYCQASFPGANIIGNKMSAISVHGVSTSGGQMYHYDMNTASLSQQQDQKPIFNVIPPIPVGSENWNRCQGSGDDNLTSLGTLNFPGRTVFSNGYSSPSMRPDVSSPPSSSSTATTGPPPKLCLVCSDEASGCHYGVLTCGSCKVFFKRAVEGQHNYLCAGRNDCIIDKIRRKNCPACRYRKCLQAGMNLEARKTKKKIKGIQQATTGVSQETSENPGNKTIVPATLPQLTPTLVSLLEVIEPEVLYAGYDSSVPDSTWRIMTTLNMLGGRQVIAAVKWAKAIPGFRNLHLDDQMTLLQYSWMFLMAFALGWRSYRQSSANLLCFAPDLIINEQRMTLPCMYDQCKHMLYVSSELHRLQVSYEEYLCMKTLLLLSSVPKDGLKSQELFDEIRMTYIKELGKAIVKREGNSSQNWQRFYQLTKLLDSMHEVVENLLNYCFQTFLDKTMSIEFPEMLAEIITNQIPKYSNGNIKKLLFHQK
The experiment in a line: GR-EFC nuclear translocation assay. In kind it is cell-based. To be noted: for qHTS Hill Slope: Hill slope of the qHTS curve fit; for qHTS Max Activity: maximal activity of the qHTS curve, inactive threshold […] (3σ); for log qEC50: log10 of qEC50 in M, printed as negative values.

Where [1] appears, read: read-out: qEC50, qHTS curve fit, class 4 values are fit defaults.
The mark [2] stands for this setting: class 4 values are fit defaults.

Like-named read-outs stand apart in the source and are kept apart here.

In the case of `CC(=O)C1(O)CCC2C3CCC4=CC(=O)CCC4(C)C3CCC21C` (stereo not drawn) [17α-hydroxyprogesterone, reference compound], the EC50 turned out to be 2.87 µM.

With `C[C@]12CC[C@@H]3c4ccc(O)cc4CC[C@H]3[C@@H]1CC[C@@H]2OC(=O)CCC1CCCC1` [NCGC00013034-01], the EC50 under setting [1] was over 9 µM.

Consider `C[C@H](CCC(=O)O)[C@H]1CC[C@H]2[C@@H]3[C@H](O)C[C@@H]4C[C@H](O)CC[C@]4(C)[C@H]3C[C@H](O)[C@]12C` [NCGC00013426-01], for which the EC50 under setting [1] was over 9 µM.

`CC(C)(O)/C=C\C(=O)[C@](C)(O)[C@H]1[C@H](O)C[C@]2(C)[C@@H]3CC=C4[C@@H](C=C(O)C(=O)C4(C)C)[C@]3(C)C(=O)C[C@@]12C` [NCGC00014911-01]: the “qHTS Curve Class” value was 4 (inactive, where activity was below 28.6% (3σ for the present assay)). Also, under “read-out: qEC50”, the EC50 is over 9 µM.

For `C[C@@]12CC[C@H]3[C@@H](CCC4=C(O)C(=O)CC[C@]43C)[C@H]1CCC2=O` [NCGC00015070-01], the EC50 under setting [1] was over 9 µM.

With `C[C@@]12CC[C@H]3[C@@H](CC[C@@H]4C[C@H](O)CC[C@]43C)[C@H]1CC[C@H]2O` [NCGC00015090-01], the EC50 under setting [1] is over 9 µM.

Regarding `C[C@@H]1C[C@@H]2[C@H]3CCC4=CC(=O)C=C[C@]4(C)[C@]3(Cl)[C@@H](O)C[C@@]2(C)[C@@]1(O)C(=O)CO` [NCGC00015136-01], the “qHTS Hill Slope” value is reported as 0.67 and the “qHTS Max Activity” value is recorded as 105.1.

Consider `C[C@@]12C[C@@H](O)[C@H]3[C@@H](CCC4=CC(=O)CC[C@]43C)[C@H]1CC[C@H]2C(=O)CO` [NCGC00015222-01], for which the “qHTS Hill Slope” value was determined as 0.77 and the “qHTS Max Activity” value was determined as 64.0. Moreover, the “log qEC50” value under setting [2] was −6.747. Also, the EC50 under setting [1] worked out at 0.179 µM.

In the case of `C[C@]12CC[C@H](O)CC1=CC[C@@H]1[C@H]2CC[C@]2(C)C(=O)CC[C@H]12` [NCGC00015341-01], the EC50 under setting [1] is over 9 µM.

As for `C#C[C@@]1(O)CC[C@H]2[C@H]3CCC4=Cc5oncc5C[C@]4(C)[C@@H]3CC[C@@]21C` [NCGC00015375-01], the “qHTS Curve Class” value is 4 (inactive, where activity was below 28.6% (3σ for the present assay)). Also, the EC50 (read-out: qEC50) is over 9 µM.

Regarding `CC[C@@H]1Cc2cc(O)ccc2C2=C1c1ccc(O)cc1C[C@H]2CC` [NCGC00015377-01], the “qHTS Curve Class” value is 4 (inactive, where activity was below 28.6% (3σ for the present assay)). Further, the EC50 (read-out: qEC50) was over 9 µM.

For `C[C@@]12CCC(=O)C=C1CC[C@@H]1[C@@H]2[C@H](O)C[C@]2(C)[C@@H]1CC[C@]2(O)C(=O)CO` [NCGC00015507-01], the “qHTS Hill Slope” value is listed as 0.55 and the “qHTS Max Activity” value stood at 123.7.

Regarding `CC(=O)[C@@]1(O)CC[C@@H]2[C@@H]3CCC4=CC(=O)CC[C@@]4(C)[C@H]3CC[C@]21C` [NCGC00015510-01], the “qHTS Hill Slope” value is 0.35 and the “qHTS Max Activity” value is on record as 100.0.

For the compound `COc1cc2c(cc1O)CC[C@@H]1[C@@H]2CC[C@@]2(C)[C@H](O)CC[C@H]12` [NCGC00015690-01], under setting [1], the EC50 was over 9 µM.

On to `CC(=O)O[C@@H]1[C@H]([N+]2(C)CCCCC2)C[C@@H]2[C@@H]3CC[C@@H]4C[C@@H](OC(C)=O)[C@H]([N+]5(C)CCCCC5)C[C@@]4(C)[C@H]3CC[C@]21C` [NCGC00015804-01], for which the EC50 under setting [1] was over 9 µM.

As to `C[C@]12CC[C@H](O)C[C@@H]1CC[C@H]1[C@H]2CC[C@]2(C)[C@H](C(=O)CO)CC[C@@H]12` [NCGC00015805-01], the EC50 under setting [1] was over 9 µM.

Turning to `CC(=O)[C@@H]1CC[C@H]2[C@H]3CC[C@H]4C[C@@H](O)CC[C@]4(C)[C@@H]3CC[C@]12C` [NCGC00015853-01], the EC50 under setting [1] was over 9 µM.

For `C[C@@]12CCC(=O)C=C1CC[C@H]1[C@H]3CC[C@](O)(C(=O)CO)[C@]3(C)CC[C@@H]12` [NCGC00015886-01], the “qHTS Hill Slope” value is listed as 0.59 and the “qHTS Max Activity” value stood at 41.2. Moreover, under setting [2], the “log qEC50” value is recorded as −6.363. Moreover, the EC50 under setting [1] was found to be 0.434 µM.

For the compound `C[C@]12C=CC(=O)C=C1CC[C@@H]1[C@H]3C[C@@H](O)[C@](O)(C(=O)CO)[C@]3(C)C[C@H](O)[C@]12F` [NCGC00016037-01], the “qHTS Hill Slope” value was found to be 1.03 and the “qHTS Max Activity” value is recorded as 113.5. Further, the “log qEC50” value under setting [2] is recorded as −6.563. The EC50 under setting [1] was 0.273 µM.

On to `C[C@@]12C=CC(=O)C=C1CC[C@@H]1C2=CC[C@]2(C)[C@@H]1CC[C@H]2C(=O)CN1CCN(c2cc(N3CCCC3)nc(N3CCCC3)n2)CC1` [NCGC00016076-01], for which the “qHTS Curve Class” value is 4 (inactive, where activity was below 28.6% (3σ for the present assay)). The EC50 (read-out: qEC50) was over 9 µM.

In the case of `COc1ccc2c(c1)CC[C@H]1[C@H]2CC[C@]2(C)[C@H](NCCCCCCN3C(=O)C=CC3=O)CC[C@@H]12` [NCGC00016078-01], under setting [1], the EC50 is over 9 µM.

Regarding `C[C@]12Cc3cn4c(nc3C=C1CC[C@H]1[C@@H]2CC[C@@]2(C)[C@H]1CC[C@@]2(O)C#N)nc1ccccc14` [NCGC00016090-01], the “qHTS Curve Class” value is 4 (inactive, where activity was below 28.6% (3σ for the present assay)). In addition, where the note is “read-out: qEC50”, the EC50 was over 9 µM.

Turning to `C[C@@]12CC[C@H]3[C@@H](CC=C4C[C@H](OS(=O)(=O)O)CC[C@]43C)[C@H]1CCC2=O` [NCGC00016143-01], the EC50 under setting [1] is over 9 µM.

`CC(=O)O[C@@H]1C[C@]2(C)[C@H](C[C@@H](O)[C@H]3[C@@]4(C)CC[C@@H](O)[C@@H](C)[C@@H]4CC[C@@]32C)/C1=C(\CCC=C(C)C)C(=O)[O-].[Na+]` [NCGC00016148-01]: the “qHTS Curve Class” value was 4 (inactive, where activity was below 28.6% (3σ for the present assay)). The EC50 (read-out: qEC50) is over 9 µM.

Consider `C[C@@]12CCC(=O)C=C1CC[C@@H]1[C@@H]2[C@H](O)C[C@]2(C)[C@@H]1CC[C@]2(O)C(=O)COC(=O)CCC(=O)[O-].[Na+]` [NCGC00016153-01], for which the “qHTS Hill Slope” value is recorded as 0.62 and the “qHTS Max Activity” value is 100.0. The “log qEC50” value under setting [2] is given as −5.952. The EC50 under setting [1] is 1.12 µM.

Consider `CC(=O)[C@@H]1CC[C@@H]2[C@@H]3CC=C4C[C@H](OS(=O)(=O)O)CC[C@@]4(C)[C@H]3CC[C@]21C` [NCGC00016184-01], for which, under setting [1], the EC50 is over 9 µM.

Consider `C[C@@]12C[C@@H](O)[C@H]3[C@@H](CCC4=CC(=O)CC[C@]43C)[C@H]1CC[C@H]2C(=O)CO` [NCGC00016214-01], for which the “qHTS Hill Slope” value is 1.35 and the “qHTS Max Activity” value is on record as 37.8. Under setting [2], the “log qEC50” value was −7.782. Further, the EC50 under setting [1] was found to be 0.0165 µM.

For `C[C@@]12CCC(=O)C=C1CC[C@@H]1[C@@H]2[C@H](O)C[C@]2(C)[C@@H]1CC[C@]2(O)C(=O)CO` [NCGC00016215-01], the “qHTS Hill Slope” value was 0.70 and the “qHTS Max Activity” value was 60.7.

Regarding `C[C@@]12CC[C@@H]3c4ccc(O)cc4CC[C@H]3[C@H]1C[C@@H](O)[C@H]2O` [NCGC00016217-01], the EC50 under setting [1] is over 9 µM.

`C#C[C@]1(O)CC[C@H]2[C@@H]3CCC4=CCCC[C@@H]4[C@H]3CC[C@@]21C` [NCGC00016233-01]: the “qHTS Curve Class” value was 4 (inactive, where activity was below 28.6% (3σ for the present assay)). In addition, the EC50 (read-out: qEC50) was over 9 µM.

Take `CCC(=O)O[C@H]1CC[C@H]2[C@@H]3CCC4=CC(=O)CC[C@]4(C)[C@H]3CC[C@]12C` [NCGC00016254-01]: the EC50 under setting [1] was over 9 µM.

As for `C[C@]12CC[C@H]3[C@@H](CCC4=CC(=O)CC[C@@]43C)[C@@H]1CC[C@@H]2C(=O)CO` [NCGC00016292-01], the EC50 under setting [1] was over 9 µM.

For `C[C@@]12CC[C@H]3[C@@H](CC[C@]4(O)C[C@H](O)CC[C@@]34C=O)[C@]1(O)CC[C@@H]2C1=CC(=O)OC1` [NCGC00016295-01], the EC50 under setting [1] is over 9 µM.

With `C#C[C@@]1(O)CC[C@@H]2[C@@H]3CCC4=CC(=O)CC[C@@H]4[C@H]3CC[C@]21C` [NCGC00016303-01], the “qHTS Curve Class” value is 4 (inactive, where activity was below 28.6% (3σ for the present assay)).

Consider `C#C[C@]1(O)CC[C@@H]2[C@H]3CCc4cc(OC)ccc4[C@@H]3CC[C@@]21C` [NCGC00016310-01], for which the EC50 under setting [1] is over 9 µM.

In the case of `C[C@@H]1[C@H](C)CC[C@@]2(C(=O)O)CC[C@]3(C)C(=CC[C@H]4[C@@]5(C)CC[C@@H](O)C(C)(C)[C@@H]5CC[C@@]43C)[C@@H]12` [NCGC00016318-01], the “qHTS Curve Class” value was 4 (inactive, where activity was below 28.6% (3σ for the present assay)). Besides, where the note is “read-out: qEC50”, the EC50 was over 9 µM.

Take `C[C@H]1C[C@@H]2[C@H]([C@@H](O)C[C@@]3(C)[C@H]2CC[C@]3(O)C(=O)CO)[C@@]2(C)C=CC(=O)C=C12` [NCGC00016330-01]: the “qHTS Hill Slope” value was determined as 0.98 and the “qHTS Max Activity” value is on record as 63.5.

`CC[C@H](CC[C@H](C)[C@@H]1CC[C@@H]2[C@H]3CC=C4C[C@@H](O)CC[C@]4(C)[C@H]3CC[C@]21C)C(C)C` [NCGC00016331-01]: under setting [1], the EC50 is over 9 µM.

Source of the values: PMC2654417 (Combinatorial chemistry & high throughput screening, 2008).
